# Patent US20070072815A1, “Methods and kits to increase the efficiency of oligonucleotide-directed nucleic acid sequence alteration” (priority 2004, published 2007)
# “Also recorded” adds a separate entry of the source.
# Tested on: DNA of DLD-1-1 cells
# Experiment: Pulsed-field gel electrophoresis of DNA damage (double strand breaks)
# Assay type: cell-based
# Conditions: HU 0.3, 1 or 5 mM; VP16 0.5, 1 or 3 μM; 24 hours
# Experimental: The cells are released by trypsinization and melted in the agarose inserts. The agarose inserts are incubated in 0.5M EDTA—1% N-laurosylsarcosine—proteinase K (1 mg/ml) at 50° C. for 48 hrs and then washed four times in TE buffer prior to loading on a 1% agarose gel (Pulse-Field Certified Agarose, Bio-Rad, Hercules, Calif.) and DNA separation by pulsed-field gel electrophoresis is carried out for 24 hrs (Bio-Rad, 120° field angle, 60 to 240s switch time, 4 V/cm). The gel is subsequently stained with ethidium bromide and analyzed with AlphaImager™ 2200. (Alpha Innotech Corp., San Leandro, Calif.).
# The effects of MMS and bleomycin on oligonucleotide-directed gene alteration are determined as follows. DLD-1-1 cells are seeded in 100 mm dishes at 2×10^6 cells per plate and immediately treated with 0.2 μM MMS or 0.75 μM bleomycin. The cells are then grown for 24 hours, until approximately 50% confluent, and washed twice with PBS. A portion of each population of cells is removed for DNA analysis by pulsed-field electrophoresis, as described in Example 1. The correcting oligo EGFP/72NT (10 μg) is then added and the cells are electroporated as in Example 3. Cells are then analyzed to determine the percentage of cells with corrected eGFP genes as described in Example 3.
structure (smiles),measurement,value
"NC(=O)NO [HU, hydroxyurea]",DNA double strand breaks,induce DSBs; also recorded: progressive increase in the amount of damaged DNA
